Tested on: TNF-alpha release in THP-1 cells
Test: LPS-induced TNF-alpha release in THP-1 cells
Format: cell-based
Conditions: Homo sapiens, THP-1, LPS-stimulated THP-1 cells; read-out: 50% inhibition in the LPS-induced TNF-alpha release in THP-1 cells assay at concentrations within the range
Experimental: The effects of compounds on TNF-alpha production by lipopolysaccharide (LPS)-stimulated […] monocytes were examined as follows.
Undifferentiated THP-1 cells were maintained in RPMI 1640 with Glutamax I containing β-mercaptoethananol (50 μM) and foetal calf serum (FCS-10%) at densities of about 1×10^6 cells per ml. For incubations without and with test reagents, cells were seeded at the indicated densities under serum-deprived (1% FCS) conditions. Compounds were dissolved in dimethylsulfoxide (DMSO-100%) and incubated with the cells to give a fmal DMSO concentration of 0.3%. Control and untreated cell samples were incubated with DMSO (0.3%).
THP-1 cells (1×10 ^6 cells/ml, total volume 150 μl) in culture medium were incubated for 1 hour (5% CO2, 37° C.) with fresh medium containing compounds or vehicle (0.1-0.3% dimethylsulfoxide). LPS (20 μg/ml) was then added to the cells and the incubation continued for a fuirther 18 hours. Cell supernatants were removed into 96 well plates for storage at −20° C.
TNF-alpha concentrations in cell supernatants were quantified by sandwich ELISA. Briefly, ELISA plates were coated overnight with 2 μg/ml of mouse anti-human TNF-alpha antibody in bicarbonate buffer (pH 9.9). After washing the wells with wash buffer (0.05% (v/v) Tween in PBS)and blocking unoccupied sites (1% BSA in wash buffer), monocyte supernatant samples or human recombinant TNF-alpha standards were added into the corresponding wells of the ELISA plate at 1:10 dilution. Biotinylated rabbit polyclonal anti-human TNF-alpha antibody (3 μg/ml) was used as the second antibody and streptavidin-horseradish peroxidase was used as the detection antibody. The peroxidase substrate is 3,3′,5,5′-tetramethylbenzidine (TMB) in the presence of hydrogen peroxide.
TNFα concentrations in supernatants from control and LPS-stimulated monocyte incubations were calculated by interpolation from a standard (log/log) curve (0.125-16 ng/ml) fitted by Excel Fit using the Activity Base software. Compounds were tested within the concentration range of 1×10^−9M to 1×10^−6M.

| IC50 [nM] | Structure (SMILES) |
| --- | --- |
| 10 to 500 | Cc1ccc(-n2nc(C(C)(C)C)cc2NC(=O)Nc2ccc(CC3CCN(C(=O)c4ccc5cnccc5n4)CC3)cc2)cc1 [Compound A197, 1-(5-tert-Butyl-2-p-tolyl-2H-pyrazol-3-yl)-3-{4-[1-([1,6]naphthyridine-2-carbonyl)-piperidin-4-ylmethyl]-phenyl}-urea] |
| 10 to 500 | COc1cccc(CC(=O)N2CCC(Cc3ccc(NC(=O)Nc4cc(C(C)(C)C)nn4-c4ccc(C)cc4)cc3)CC2)c1OC [Compound A213, 1-(5-tert-Butyl-2-p-tolyl-2H-pyrazol-3-yl)-3-(4-{1-[2-(2,3-dimethoxy-phenyl)-acetyl]-piperidin-4-ylmethyl}-phenyl)-urea] |
| 10 to 500 | Cc1ccc(-n2nc(C(C)(C)C)cc2NC(=O)Nc2cccc(CC3CCN(C(=O)c4cnccc4C(F)(F)F)CC3)c2)cc1 [Compound A126, 1-(5-tert-Butyl-2-p-tolyl-2H-pyrazol-3-yl)-3-{3-[1-(4-trifluoromethyl-pyridine-3-carbonyl)-piperidin-4-ylmethyl]-phenyl}-urea] |
| 10 to 500 | Cc1ccc(-n2nc(C(C)(C)C)cc2NC(=O)Nc2cccc(CC3CCN(C(=O)c4cccnc4N)CC3)c2)cc1 [Compound A39, 1-{3-[1-(2-Amino-pyridine-3-carbonyl)-piperidin-4-ylmethyl]-phenyl}-3-(5-tert-butyl-2-p-tolyl-2H-pyrazol-3-yl)-urea] |
| 10 to 500 | Cc1ccc(-n2nc(C(C)(C)C)cc2NC(=O)Nc2ccc(CC3CCN(C(=O)Nc4ccc(N(C)C)cc4)CC3)cc2)cc1 [Compound A450, 4-{4-[3-(5-tert-Butyl-2-p-tolyl-2H-pyrazol-3-yl)-ureido]-benzyl}-piperidine-1-carboxylic acid (4-dimethylamino-phenyl)-amide] |
| 10 to 500 | Cc1ccc(-n2nc(C(C)(C)C)cc2NC(=O)Nc2cccc(CC3CCN(C(=O)Cc4ccsc4)CC3)c2)cc1 [Compound A190, 1-(5-tert-Butyl-2-p-tolyl-2H-pyrazol-3-yl)-3-{3-[1-(2-thiophen-3-yl-acetyl)-piperidin-4-ylmethyl]-phenyl}-urea] |
| 10 to 500 | Cc1ccc(-n2nc(C(C)(C)C)cc2NC(=O)Nc2ccc(CC3CCN(S(=O)(=O)c4ccccc4Cl)CC3)cc2)cc1 [Compound A567, 1-(5-tert-Butyl-2-p-tolyl-2H-pyrazol-3-yl)-3-{4-[1-(2-chloro-benzenesulfonyl)-piperidin-4-ylmethyl]-phenyl}-urea] |
| 10 to 500 | Cc1ccc(-n2nc(C(C)(C)C)cc2NC(=O)Nc2ccc(CC3CCN(C(=O)c4ccc(Cl)nc4)CC3)cc2)cc1 [Compound A332, 1-(5-tert-Butyl-2-p-tolyl-2H-pyrazol-3-yl)-3-{4-[1-(6-chloro-pyridine-3-carbonyl)-piperidin-4-ylmethyl]-phenyl}-urea] |
| 10 to 500 | Cc1ccc(-n2nc(C(C)(C)C)cc2NC(=O)Nc2ccc(CC3CCN(C(=O)Cc4c[nH]c5ccccc45)CC3)cc2)cc1 [Compound A358, 1-(5-tert-Butyl-2-p-tolyl-2H-pyrazol-3-yl)-3-{4-[1-(2-1H-indol-3-yl-acetyl)-piperidin-4-ylmethyl]-phenyl}-urea] |
| 10 to 500 | Cc1ccc(-n2nc(C(C)(C)C)cc2NC(=O)Nc2cccc(CC3CCN(C(=O)c4cnccn4)CC3)c2)cc1 [Compound A64, 1-(5-tert-Butyl-2-p-tolyl-2H-pyrazol-3-yl)-3-{3-[1-(pyrazine-2-carbonyl)-piperidin-4-ylmethyl]-phenyl}-urea] |
| 10 to 500 | CO[C@H](C(=O)N1CCC(Cc2ccc(NC(=O)Nc3cc(C(C)(C)C)nn3-c3ccc(C)cc3)cc2)CC1)c1ccccc1 [Compound A193, 1-(5-tert-Butyl-2-p-tolyl-2H-pyrazol-3-yl)-3-{4-[1-((S)-2-methoxy-2-phenyl-acetyl)-piperidin-4-ylmethyl]-phenyl}-urea] |
| 10 to 500 | COc1cccc(CC(=O)N2CCC(Cc3cccc(NC(=O)Nc4cc(C(C)(C)C)nn4-c4ccc(C)cc4)c3)CC2)c1OC [Compound A22, 1-(5-tert-Butyl-2-p-tolyl-2H-pyrazol-3-yl)-3-(3-{1-[2-(2,3-dimethoxy-phenyl)-acetyl]-piperidin-4-ylmethyl}-phenyl)-urea] |
| 10 to 500 | Cc1ccc(-n2nc(C(C)(C)C)cc2NC(=O)Nc2ccc(CC3CCN(C(=O)c4csc(-c5cccnc5)n4)CC3)cc2)cc1 [Compound A225, 1-(5-tert-Butyl-2-p-tolyl-2H-pyrazol-3-yl)-3-{4-[1-(2-pyridin-3-yl-thiazole-4-carbonyl)-piperidin-4-ylmethyl]-phenyl}-urea] |
| 10 to 500 | Cc1ccc(-n2nc(C(C)(C)C)cc2NC(=O)Nc2cccc(CC3CCN(C(=O)C4CCCO4)CC3)c2)cc1 (stereo not drawn) [Compound A66, 1-(5-tert-Butyl-2-p-tolyl-2H-pyrazol-3-yl)-3-{3-[1-(tetrahydro-furan-2-carbonyl)-piperidin-4ylmethyl]-phenyl}-urea] |
| 10 to 500 | Cc1ccc(-n2nc(C(C)(C)C)cc2NC(=O)Nc2cccc(CC3CCN(C(=O)Cc4ccc(F)cc4F)CC3)c2)cc1 [Compound A26, 1-(5-tert-Butyl-2-p-tolyl-2H-pyrazol-3-yl)-3-(3-{1-[2-(2,4-difluoro-phenyl)-acetyl]-piperidin-4-ylmethyl}-phenyl)-urea] |
| 10 to 500 | Cc1ccc(-n2nc(C(C)(C)C)cc2NC(=O)Nc2cccc(CC3CCN(C(=O)c4ccco4)CC3)c2)cc1 [Compound A45, 1-(5-tert-Butyl-2-p-tolyl-2H-pyrazol-3-yl)-3-{3-[1-(furan-2-carbonyl)-piperidin-4-ylmethyl]-phenyl}-urea] |
| 10 to 500 | Cc1ccc(-n2nc(C(C)(C)C)cc2NC(=O)Nc2ccc(CC3CCN(C(=O)c4cnn(-c5ccccc5)c4C)CC3)cc2)cc1 [Compound A331, 1-(5-tert-Butyl-2-p-tolyl-2H-pyrazol-3-yl)-3-{4-[1-(5-methyl-1-phenyl-1H-pyrazole-4-carbonyl)-piperidin-4-ylmethyl]-phenyl}-urea] |
| 10 to 500 | Cc1ccc(-n2nc(C(C)(C)C)cc2NC(=O)Nc2cccc(CC3CCN(C(=O)c4cccc(C)n4)CC3)c2)cc1 [Compound A146, 1-(5-tert-Butyl-2-p-tolyl-2H-pyrazol-3-yl)-3-{3-[1-(6-methyl-pyridine-2-carbonyl)-piperidin-4-ylmethyl]-phenyl}-urea] |

| Structure (SMILES) | IC50 [nM] |
| --- | --- |
| CC(=O)NCC(=O)N1C2CCC1CC(Cc1cccc(NC(=O)Nc3cc(C(C)(C)C)nn3-c3ccc(C)cc3)c1)C2 (stereo not drawn) [Compound A766, N-[2-(3-{3-[3-(5-tert-Butyl-2-p-tolyl-2H-pyrazol-3-yl)-ureido]-benzyl}-8-aza-bicyclo[3.2.1]oct-8-yl)-2-oxo-ethyl]-acetamide] | 10 to 500 |
| Cc1ccc(-n2nc(C(C)(C)C)cc2NC(=O)Nc2cccc(CC3CC4CCC(C3)N4C(=O)Cc3ccc(F)c(F)c3)c2)cc1 (stereo not drawn) [Compound A719, 1-(5-tert-Butyl-2-p-tolyl-2H-pyrazol-3-yl)-3-(3-{8-[2-(3,4-difluoro-phenyl)-acetyl]-8-aza-bicyclo[3.2.1]oct-3-ylmethyl}-phenyl)-urea] | 10 to 500 |
| COc1cccc(C(=O)N2C3CCC2CC(Cc2cccc(NC(=O)Nc4cc(C(C)(C)C)nn4-c4ccc(C)cc4)c2)C3)c1OC (stereo not drawn) [Compound A786, 1-(5-tert-Butyl-2-p-tolyl-2H-pyrazol-3-yl)-3-{3-[8-(2,3-dimethoxy-benzoyl)-8-aza-bicyclo[3.2.1]oct-3-ylmethyl]-phenyl}-urea] | 10 to 500 |
